The record followed here is ChEMBL document CHEMBL1144040, “Inhibitors of anthrax lethal factor based upon N-oleoyldopamine” (Bioorg Med Chem Lett, 2008).

For one experiment, the system named is J774.A1. The experiment is described as follows: Inhibition of lethal factor induced toxicity in mouse J774A.1 macrophages after 4 hrs by MTT assay. The experiment is classed as functional, cell-based. Conditions: J774.A1, 4 h.
In experiment [1] the target is T1, Lethal factor (Bacillus anthracis, UniProt P15917).
T1 sequence (P15917 whole entry): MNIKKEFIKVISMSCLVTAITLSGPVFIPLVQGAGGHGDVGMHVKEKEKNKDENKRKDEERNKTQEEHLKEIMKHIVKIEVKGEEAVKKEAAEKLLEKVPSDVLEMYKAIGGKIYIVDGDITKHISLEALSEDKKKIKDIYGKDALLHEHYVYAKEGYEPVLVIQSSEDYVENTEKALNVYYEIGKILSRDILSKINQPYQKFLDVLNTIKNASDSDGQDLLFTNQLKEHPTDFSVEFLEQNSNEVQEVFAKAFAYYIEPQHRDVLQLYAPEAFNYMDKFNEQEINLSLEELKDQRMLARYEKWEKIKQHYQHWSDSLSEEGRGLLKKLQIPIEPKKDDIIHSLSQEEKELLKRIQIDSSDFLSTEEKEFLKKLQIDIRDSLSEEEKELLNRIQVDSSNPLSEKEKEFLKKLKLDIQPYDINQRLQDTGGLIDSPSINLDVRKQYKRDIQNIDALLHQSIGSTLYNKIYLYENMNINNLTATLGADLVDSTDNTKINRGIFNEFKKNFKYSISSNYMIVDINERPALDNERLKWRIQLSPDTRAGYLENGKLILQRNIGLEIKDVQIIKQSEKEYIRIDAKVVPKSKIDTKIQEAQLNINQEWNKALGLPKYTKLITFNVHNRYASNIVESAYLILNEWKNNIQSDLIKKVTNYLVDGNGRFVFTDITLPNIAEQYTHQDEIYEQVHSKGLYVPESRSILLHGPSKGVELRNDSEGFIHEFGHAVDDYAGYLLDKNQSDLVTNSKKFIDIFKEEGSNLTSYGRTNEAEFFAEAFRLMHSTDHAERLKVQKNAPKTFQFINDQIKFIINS
Briefly: Inhibition of Bacillus anthracis lethal factor by FRET assay.

Experiment [2] has as its target T1, Lethal factor. Briefly: Inhibition of Bacillus anthracis lethal factor by cell-based assay.
Experiment [3] deals with T2, Lethal factor (Bacillus anthracis) (UniProt P15917).
T2 sequence (whole entry): T1 sequence (P15917 whole entry)
Briefly: Inhibition of Bacillus anthracis lethal factor up to 100 uM by FRET assay.

The source made the active and inactive calls. The calls are words filed in the database; no cut-off is given here.

In the case of `CCCCCCCC/C=C\CCCCCCCC(=O)NCc1ccc(O)c(O)c1`, the concentration for half-maximal inhibition (IC50) amounted to 4.3 µM in the experiment on J774.A1 and 15 µM at Lethal factor [2]. Also, the affinity on Lethal factor [1], expressed as Ki, was 2.2 µM.
Take `CCCCCC(=O)NCCc1ccc(O)c(O)c1`: the result in experiment [3] was inactive.
On to `CCCCCCCCCCCCCCCCCC(=O)NCCc1ccc(O)c(O)c1`, for which the result in experiment [3] was inactive.
In the case of `CCCCCCCC/C=C/CCCCCCCC(=O)NCCc1ccc(O)c(O)c1`, the result in experiment [3] was inactive.
Molecule `CCCCCCCC/C=C\CCCCCCCC(=O)NCc1ccc(C(=O)NO)cc1` showed an inhibition constant Ki at Lethal factor [1] of 6.2 µM. This molecule displayed an IC50 against Lethal factor [2] of 42 µM.
